In the METLIN SMRT retention time set (Domingo-Almenara et al. 2019):

Experiment: gradient 5% acetonitrile 3 min, to 50% in 2 min, to 85% in 15 min, held 3 min, 100 µL/min
Conditions: column: Zorbax Extend-C18 2.1 x 50 mm; eluents: water / acetonitrile, 0.1% formic acid
Procedure, shortened: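 Retention times of pure standards were taken from adduct peaks that were selected by computer and manually inspected. Over 3 months, mixtures of ~100 molecules were run by HPLC–quadrupole time-of-flight mass spectrometry in positive and negative ionization mode. The Zorbax Extend-C18 column (2.1 × 50 mm, 1.8 μm) ran at 100 μL/min in water and acetonitrile, each containing 0.1% formic acid, with 40 μL dead volume and 900 μL dwell volume.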

RP-LC retention time [s]	SMILES
839	Cn1cccc1C(=O)N1CCN(C(=O)c2nnn3c2COC(c2ccc(Cl)cc2)C3)CC1 (configuration not stated)
1160	COc1ccc(N2CCN(C(=O)c3ccc(-c4ccsc4)nc3)CC2)cc1
613	CCN(CC)S(=O)(=O)c1ccc2c(c1)CC(C(=O)NCCN1CCCC1)N2C(C)=O (configuration not stated)
587	CN1CCC(NC(=O)C2CCc3sc(C(=O)N4CCCCC4)cc3C2)CC1 (configuration not stated)
641	COCCN1[C@@H]2CCN(Cc3ccc(C#N)cc3)C[C@@]2(C(=O)N2CCOCC2)CCS1(=O)=O
802	O=C(NCC(O)C1CCCCC1)c1cccc2ccccc12 (configuration not stated)
660	CCOc1ccc(NC(=O)N2CC(=O)N(CC(=O)N3CCC(C(N)=O)CC3)c3ccccc32)cc1
1210	CCc1nc(-c2csc(S(=O)(=O)N3CCCC(C(=O)Nc4ccc(C(C)C)cc4)C3)c2)no1 (configuration not stated)
771	Cn1c(=O)c(N2CCC(NC(=O)NCc3ccc(F)cc3)CC2)nc2cccnc21
806	O=C(Cc1ccccc1Cl)NCC(O)c1ccc(C(F)(F)F)cc1 (configuration not stated)
595	Cc1cc(Nc2ccc(NC(=O)Cc3cccs3)cc2)nc(N2CCCC2)n1
742	Cc1ccc(NC(=O)C2CCCN(c3cn[nH]c(=O)c3)C2)cc1C (configuration not stated)
576	O=C(NCc1ccc(F)cc1F)c1ccc2c(c1)ncn2CCN1CCCC1
735	O=C(C1CCN(S(=O)(=O)c2ccc3[nH]c(=O)ccc3c2)CC1)N1CCN(c2ccccc2)CC1
586	O=C1NC2CCCCC2NC1CC(=O)N1CCN(C(c2ccccc2)c2ccccc2)CC1 (configuration not stated)
660	Cc1cc(N2CCN(S(=O)(=O)c3cc(F)ccc3F)CC2)nc(N2CCOCC2)n1
716	O=C(Cn1nc2n(c1=O)CCCC2)Nc1ccc(C(F)(F)F)cc1

RP-LC retention time [s]	SMILES
673	O=C(CC1=C2CCCCC2NC1=O)NCCc1c[nH]c2ccccc12 (configuration not stated)
585	O=C(Cc1cccs1)N1CCN(c2cnn3cnnc3c2)CC1
709	CN1CCCc2cc(C(CNC(=O)C(=O)NCc3ccc4c(c3)OCO4)N3CCCC3)ccc21 (configuration not stated)
674	O=C(Cc1nnc2c(-c3nc(C4CC4)no3)cccn12)N1CCCCCC1
576	O=C(NCCCN1CCOCC1)C1=C2CCCN2c2ccc(F)cc2S1(=O)=O
772	CCCn1cc(CCNC(=O)C2CCCCC2)c2cccnc21
648	CCn1ccc2cc(S(=O)(=O)N3CCC(C(=O)NCCC(C)N4CCCC4)CC3)ccc21 (configuration not stated)
939	Cc1ccc(CN2CCN(CC(=O)Nc3cccc(C(F)(F)F)c3)C(=O)C2=O)cc1
699	Cc1noc(-c2ccc(-n3ncc(C(=O)N4CCCC4)c3C)nc2)n1
696	COCCCNC(=O)CN1C(=O)C2CCCCN2c2ccc(C(=O)N3CCCC3)cc21 (configuration not stated)
632	N#Cc1ccc(-c2nc(-c3ccc4c(c3)ncn4CCN3CCCCC3)no2)cc1
764	CC1=C(c2ccc(C)c(C)c2)S(=O)(=O)N=C1N1CCCN(C(=O)c2ccoc2)CC1
611	Cc1onc(-c2ccc(Br)s2)c1C(=O)NCCCN1CCN(C)CC1
562	O=C(NCCCN1CCCCC1)c1csc(-c2ccc(N3CCCC3)nc2)n1
595	COc1ccccc1CCC(=O)NCc1ccc2c(c1)ncn2C
915	O=C(NCc1ccccc1)c1cn(-c2ccc(-c3nc(C4CC4)no3)cn2)cn1

The remaining lines, values behind:

SMILES	RP-LC retention time [s]
O=S(=O)(Nc1cccc(Cl)c1)c1ccc(-c2nnc(C3CCC3)o2)o1	967
O=C(N1CCCC(c2nnnn2-c2ccccc2)C1)C1(c2ccccc2)CC1 (configuration not stated)	839
CCc1c(C(=O)O)nnn1Cc1ccccc1C	728
O=c1ccc(S(=O)(=O)N2CCOCC2)cn1Cc1ccc(F)cc1	759
NC(=O)C1CCN(C2CC(=O)N(c3ccc(Cl)c(Cl)c3)C2=O)CC1 (configuration not stated)	611
Cn1ccc2ccn(CC(=O)Nc3ccccc3)c(=O)c21	737
Cn1nc(-c2nc(C3CC3)no2)c2c1CCN(C(=O)c1ccccc1Br)C2	821
CSc1ccc(NC(=O)CCl)cc1	751
Cc1ccc(-c2cn3c(n2)N(C(=O)c2sc(C)nc2C)CCC3)cc1	642
CCOC(=O)c1cn(CC(=O)Nc2ccc(Br)cc2)c2nc(C)ccc2c1=O	821
O=C(NCCc1cnc[nH]1)c1nc(Nc2ccc(F)cc2)c2ccccc2n1	589
CCOCC(=O)N1CCCC(c2nc(CNC(=O)C(C)C)cs2)C1 (configuration not stated)	625
COc1ccc(NC(=O)N2CC(N(Cc3ccncc3)CC(C)C)C2)cc1OC	622
CCOc1ccc(-c2[nH]ncc2CN2C[C@@H]3CCN(S(C)(=O)=O)C[C@]3(CF)C2)cc1	661
CCc1ccc2nc(Nc3ncc4c(n3)CC(c3ccc(OC)cc3)CC4=O)nc(C)c2c1 (configuration not stated)	820
Cc1nc(-c2cnccn2)n(CC(=O)Nc2cccc(C(C)C)c2)c(=O)c1C	855
O=C(Nc1cccc(F)c1)N1CCC(n2c(-c3ccco3)nc3cccnc32)C1 (configuration not stated)	767

SMILES	RP-LC retention time [s]
CCCCNC(=O)c1ccccc1NC(=O)C1CCN(C(=O)C(C)(C)C)CC1	874
CCCN(CCC)C(=O)Cn1nc(-c2nc(-c3ccc(C)cc3)no2)c2ccccc21	859
CCOc1ccccc1NC(=O)Cn1c(=O)n(-c2cccc(C)c2)c(=O)c2c1cc(C)n2C	943
CCCC1c2nccn2CCCN1C(=O)c1c(C)noc1C (configuration not stated)	576
O=S(=O)(c1cccnc1)N1CC(c2noc(C3CCCN3CC3CC3)n2)C1 (configuration not stated)	592
CC(C)n1cnc(S(=O)(=O)N2CCC(C(=O)Nc3ccc(F)c(Cl)c3)CC2)c1	834
Cc1ccc(Nc2c(-c3ccc(Cl)cc3)nc3nc(C)cc(C)n23)cc1	827
COc1ccc(C2(C(=O)N3CCn4c(C)nnc4C3)CC2)cc1	584
CCCOC(=O)c1ccc(Oc2c(C)oc3cc(OCC#N)ccc3c2=O)cc1	958
CCc1c(C2CCN(C(=O)c3cc(C)on3)CC2)noc1N	669
Cc1cc(C)cc(NC(=O)Cc2csc3nc(-c4ccc(C)c(C)c4)cn23)c1	966
Cc1oc2nc3c(c(=O)n(CC(=O)OCc4ccccc4)c(=O)n3C)n2c1C	840
O=c1c2cnc3nc(-c4ccc(Cl)cc4)nn3c2ccn1CCCO	714
CCOc1cccc(-c2noc(-c3nnn4c3COC(c3ccc(OC)cc3)C4)n2)c1 (configuration not stated)	1210
COc1ccccc1OCc1nc(-c2ccc3ncn(C(C)C)c3c2)no1	729
COC(=O)c1cc(OCC(=O)Nc2ccccc2)c2cc(OC)c(OC)cc2n1	711
CN(C)C(=O)/N=N/C(=O)N(C)C	597
